Values after ≈ are worked out from the molar mass of the structure shown.

We go through one molecule from paper PMC4196226 (mBio, 2014).

What all share (assay type): cell-based
For one assay, the system named is P. aeruginosa. In words: microbe, parasite or virus in culture. The following applies: Pseudomonas aeruginosa.
The test system of a further assay is S. maltophilia. In words: MIC assay. The following applies: Stenotrophomonas maltophilia.
The test system of another assay is A. baumannii. Description: MIC assay. The conditions noted are these: Acinetobacter baumannii.
The next assay has as its system K. pneumoniae. Description: microbe, parasite or virus in culture. The following applies: Klebsiella pneumoniae.
The next assay concerns B. cepacia. Description: MIC assay. The following applies: Burkholderia cepacia.

Regarding `C[C@@H](O)[C@H]1C(=O)N2C(C(=O)O)=C(S[C@@H]3CN[C@H](C(=O)N(C)C)C3)[C@H](C)[C@H]12` [MPM, meropenem], the MIC90 against P. aeruginosa was greater than 64 µg/mL; in the assay on S. maltophilia it was greater than 64 µg/mL; in the assay on A. baumannii, 32 µg/mL (≈ 83.4 µM); in the assay on K. pneumoniae, 32 µg/mL (≈ 83.4 µM); against B. cepacia it was 8 µg/mL (≈ 20.9 µM).
